From PMC11761247, “Antioxidant, Anti-α-Glucosidase, Anti-Tyrosinase, and Anti-Acetylcholinesterase Components from Stem of Rhamnus formosana with Molecular Docking Study” (Antioxidants, 2024)
Where two headings read alike, the source gives them in different places.

Columns and labels:
[1] = DPPH free radical scavenging activity; details: for EC50: isolated compounds (Table 5), read-out: SC50 DPPH
Protocol: DPPH analysis was performed according to the previously published procedure. A 400 μM DPPH radical solution was prepared in EtOH. The tested samples were dissolved in DMSO to prepare stock solutions, which were then diluted to the desired concentrations with EtOH. In a 96-well plate, 100 μL of each diluted tested sample solution was mixed with 100 μL of the DPPH radical solution (200 μM). The mixture was allowed to react in the dark at room temperature for 30 min. After the reaction, the absorbance at 520 nm was measured using an ELISA reader. DPPH radical scavenging activity was calculated by the following equation:(1) Scavenging rate (%)=(OD0−OD1)/OD0 where OD0 is absorbance of the control and OD 1 is that of the tested sample.

[2] = ABTS radical scavenging activity; details: for EC50: isolated compounds (Table 5), read-out: SC50 ABTS
Protocol: The analysis of ABTS was performed according to the previously published method. The ABTS solution (28 mM) was mixed with […] solution (9.6 mM) in a 1:1 ratio (v/v) and allowed to react in the dark at room temperature for 16 h to generate the ABTS radical solution. The ABTS radical solution was then diluted with EtOH until the absorbance at 740 nm reached 0.70 ± 0.02. The tested samples were dissolved in DMSO to prepare stock solutions, which were subsequently diluted to the desired concentrations with EtOH. In a 96-well plate, 190 μL of the diluted ABTS radical solution was mixed with 10 μL of each diluted sample solution. The mixture was allowed to react in the dark at room temperature for 6 min. The absorbance at 740 nm was then measured using an ELISA reader. The ABTS radical scavenging activity was calculated by the following equation:(2) Scavenging rate (%)=(OD0−OD1)/OD0×100 where OD0 is absorbance of the control and OD1 is that of the tested sample.

[3] = Superoxide radical scavenging activity (NBT/PMS/NADH); details: for EC50: isolated compounds (Table 5), read-out: SC50 Superoxide
Protocol: The superoxide scavenging activity assay was performed based on the published method. The superoxide radical was prepared in a 16 mM Tris-HCl buffer (pH 8.0) containing 50 µL of NBT (300 µM), 50 µL of PMS (120 µM), and 50 µL of different concentrations of the tested sample. The reaction was initiated by adding 50 µL of the NADH (468 µM) solution to the mixture and incubated at room temperature for 5 min. The activity of the samples was determined by calculating the decrease in absorbance measured at 560 nm by the following equation:(3) Scavenging rate (%)=(OD0−OD1)/OD0×100 where OD0 is absorbance of the control and OD1 is that of the tested sample.

[4] = Ferric reducing antioxidant power (FRAP)
Protocol: The analysis was performed using the published method. The working solution was prepared by mixing acetate buffer (pH 3.6), ferric chloride solution (20 mM), and TPTZ solution (10 mM TPTZ in 40 mM HCl) in a 10:1:1 ratio. Then, 900 µL of this solution was warmed to 37 °C and mixed with 100 µL of the diluted sample, blank, or standard in a microcentrifuge tube. The tubes were vortexed and incubated in a dry bath at 37 °C for 40 min. Absorbance was measured at 593 nm. The standard curve was linear from 0 to 100 mM Trolox, and results were expressed as mM TE/g dry weight.

α-glucosidase = target: T1, α-glucosidase (Saccharomyces cerevisiae, UniProt P53341); assay: α-Glucosidase inhibitory activity (p-NPG substrate); format: biochemical
T1 construct: purchased Sigma-Aldrich

AChE = target: T2, AChE (Electrophorus electricus, UniProt O42275); assay: biochemical
T2 construct: purchased Sigma-Aldrich
Protocol: Determination of AChE inhibition was conducted based on the reported method with slight modifications. Sodium phosphate buffer (0.1 M, pH 8.0, 140 µL), test compound solution (20 µL), enzyme solution (15 µL of AChE at 0.2 units/mL), and DTNB (15 mM, 10 µL) were mixed and incubated for 10 min at room temperature. The reaction was then initiated by adding 10 µL of the substrate (AChI, 15 mM).

[5] = isolated compounds (Table 5), Trolox equivalents
[6] = solvent extracts, concentration for 50% free radical scavenging

T2 sequence (O42275 24-633): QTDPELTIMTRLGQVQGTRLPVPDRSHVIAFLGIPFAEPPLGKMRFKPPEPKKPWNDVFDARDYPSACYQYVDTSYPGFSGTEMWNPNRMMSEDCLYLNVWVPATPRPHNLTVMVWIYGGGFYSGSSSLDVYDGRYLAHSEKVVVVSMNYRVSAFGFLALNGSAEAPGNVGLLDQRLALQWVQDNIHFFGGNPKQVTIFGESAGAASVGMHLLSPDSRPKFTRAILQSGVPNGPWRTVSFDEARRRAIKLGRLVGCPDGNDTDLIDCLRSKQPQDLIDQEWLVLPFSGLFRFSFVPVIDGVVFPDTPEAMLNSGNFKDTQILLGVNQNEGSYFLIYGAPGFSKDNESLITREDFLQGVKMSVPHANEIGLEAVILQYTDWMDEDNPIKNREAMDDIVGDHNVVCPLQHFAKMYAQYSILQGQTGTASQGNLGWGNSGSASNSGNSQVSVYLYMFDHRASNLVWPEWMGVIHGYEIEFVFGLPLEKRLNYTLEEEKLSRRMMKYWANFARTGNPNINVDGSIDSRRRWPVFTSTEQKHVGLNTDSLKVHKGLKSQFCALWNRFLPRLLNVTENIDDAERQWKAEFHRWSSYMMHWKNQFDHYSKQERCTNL
T1 sequence (P53341 whole entry): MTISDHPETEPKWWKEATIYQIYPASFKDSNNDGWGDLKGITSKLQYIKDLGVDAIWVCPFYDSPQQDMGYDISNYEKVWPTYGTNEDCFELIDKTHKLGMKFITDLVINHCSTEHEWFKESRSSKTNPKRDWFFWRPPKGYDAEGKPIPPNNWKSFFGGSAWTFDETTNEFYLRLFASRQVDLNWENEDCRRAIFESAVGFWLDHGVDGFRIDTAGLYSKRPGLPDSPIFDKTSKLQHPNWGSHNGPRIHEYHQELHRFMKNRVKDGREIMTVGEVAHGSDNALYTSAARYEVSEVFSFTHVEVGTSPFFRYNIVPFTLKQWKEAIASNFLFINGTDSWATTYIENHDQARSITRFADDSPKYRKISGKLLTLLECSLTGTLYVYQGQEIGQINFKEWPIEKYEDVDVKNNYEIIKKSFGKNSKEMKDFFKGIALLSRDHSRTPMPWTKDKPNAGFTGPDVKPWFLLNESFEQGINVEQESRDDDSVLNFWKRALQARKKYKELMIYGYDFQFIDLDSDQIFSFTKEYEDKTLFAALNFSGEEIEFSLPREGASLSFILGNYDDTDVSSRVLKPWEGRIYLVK

| SMILES | EC50 [1] [µM] | EC50 [2] [µM] | EC50 [3] [µM] | TE FRAP [4, 5] [mM/g] | IC50 (α-glucosidase) [µM] | IC50 (AChE) [µM] | other results |
| --- | --- | --- | --- | --- | --- | --- | --- |
| O=c1c(O)c(-c2ccc(O)cc2)oc2cc(O)cc(O)c12 [Kaempferol (1), kaempferol] | 61.7 ± 7.36 | 15.3 ± 0.94 | 271 ± 20.7 | 1046.16 ± 23.78 |  |  | TE FRAP ([4]; isolated compounds (Table 5), Trolox equivalents, listed as kaempferol (1)): 1046.16 ± 23.78 mM/g |
| O=c1cc(-c2ccc(O)c(O)c2)oc2cc(O[C@@H]3O[C@H](CO)[C@@H](O)[C@H](O)[C@H]3O)cc(O)c12 [Cynaroside, reference compound] |  |  | 20 ± 1.7 |  |  |  | SC50 Superoxide [3, 6]: 12.03 ± 4.20 µg/mL |
| Cc1cc(C(C)(C)C)c(O)c(C(C)(C)C)c1 [BHT, butylated hydroxytoluene, reference compound] | 708 ± 10.8 | 37.5 ± 4.31 |  | 5712.61 ± 176.27 |  |  | SC50 DPPH [1, 6]: 156.04 ± 14.31 µg/mL; SC50 ABTS [2, 6]: 9.12 ± 1.85 µg/mL; TE FRAP ([4]; solvent extracts (Table 2), Trolox equivalents in mM per gram of extract): 3196.39 ± 115.26 mM/g |
| Cc1cc(O)c2c(c1)C(=O)c1cc(O)cc(O)c1C2=O [Emodin (3), emodin] | > 200 | > 200 | 232 ± 15.9 | <1 | 58.9 ± 3.39 | 77.6 ± 6.28 |  |
| COc1cc(O)c2c(c1)C(=O)c1cc(C)cc(O)c1C2=O [Physcion (5), physcion] | > 200 | > 200 | > 200 | <1 | > 800 | 76 ± 1.34 |  |
| O=C(/C=C/c1ccc(O)c(O)c1)O[C@@H]1C[C@](O)(C(=O)O)C[C@@H](O)[C@H]1O [Chlorogenic acid, chlorogenic acid, reference compound] |  |  |  |  |  |  | IC50 (AChE; isolated compounds (Table 6), read-out: IC50 AChE (converted)): 303 ± 25.2 µM; IC50 (AChE; solvent extracts (Table 3), read-out: IC50 AChE (converted)): 496 µM |
| O=c1c(O)c(-c2ccc(O)c(O)c2)oc2cc(O)cc(O)c12 [Quercetin (2), quercetin] | 16.1 ± 2.62 | 5.7 ± 0.92 | 85.8 ± 4.76 | 1026.73 ± 16.69 |  |  | TE FRAP ([4]; isolated compounds (Table 5), Trolox equivalents, listed as quercetin (2)): 1026.73 ± 16.69 mM/g |
| Cc1cc(O)c2c(c1)C(=O)c1cccc(O)c1C2=O [Chrysophanol (4), chrysophanol] | > 200 | > 200 | > 200 | <1 | 604 ± 44.8 | > 400 |  |
